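Interpolation was linear, between the two tested concentrations surrounding the appropriate level; five concentrations were tested over 48 hours in 96-well plates. GI50 is the concentration that inhibits growth by half.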 Active and inactive are the calls of the source. Cut-off read from the data, not from the text of the source: active = GI50 up to about 1.1 µM and inactive = higher.
Legend:
Test in all cases: NCI tumour cell line growth inhibition, 48 h
BT-549 = system: BT-549
MDA-N = system: MDA-N
DMS-114 = system: DMS-114
DMS-273 = system: DMS-273
KM-20L2 = system: KM-20L2
LXFL 529 = system: LXFL 529
M19-MEL = system: M19-MEL
HOP-18 = system: HOP-18

Structure (SMILES)	GI50 (BT-549)	GI50 (MDA-N)	also measured
O=C(Nc1ccc2oc(=O)c(C(=O)O)cc2c1)Oc1ccccc1	> 100 µM (inactive)		
CC(C)(C)c1ccc(-c2nnc(SCc3ccc(Cl)cc3)n2-c2cccc(C(F)(F)F)c2)cc1	> 93.3 µM (inactive)	24.2 µM (inactive)	
CC1(C)CN=C(Nc2ccc(F)c(Cl)c2)S1	> 100 µM (inactive)	> 100 µM (inactive)	
CCN(CC)/C(Sc1ccccc1)=C(\C(Cl)=C(Cl)Cl)[N+](=O)[O-]	15.8 µM (inactive)	16.9 µM (inactive)	
Nc1nnc2oc3ccc4ccccc4c3cc1-2	33.8 µM (inactive)	34 µM (inactive)	
Cc1ccc(S(=O)(=O)OC(c2ccc(Cl)cc2Cl)C2OC(=O)c3ccccc32)cc1 (stereo not drawn)			GI50 (DMS-114): 45.8 µM (inactive); GI50 (DMS-273): 75.5 µM (inactive); GI50 (KM-20L2): 32.7 µM (inactive); GI50 (LXFL 529): > 100 µM (inactive); GI50 (M19-MEL): > 100 µM (inactive)
CC/C(Cl)=N\OC(=O)Nc1ccc(OC)cc1	1.6 µM (inactive)	6.14 µM (inactive)	
CCOC(=O)c1ccc(Nc2nc3ccc(C(F)(F)F)cc3nc2C(=O)OCC)cc1	> 100 µM (inactive)	> 100 µM (inactive)	
C=CC(O)C#Cc1cnc(OC)nc1OC (stereo not drawn)	> 100 µM (inactive)	> 100 µM (inactive)	
CO/N=C(/C)c1cccc(Nc2nc3ccccc3c3[nH]c4ccccc4c23)c1		8.3 µM (inactive)	
CCOC(=O)C1(C#N)OC(=O)c2cnccc21 (stereo not drawn)	> 100 µM (inactive)	> 100 µM (inactive)	
CCOc1ccc(Nc2nc3c(s2)C(=O)c2ccccc2C3=O)cc1		1.96 µM (inactive)	
O=[N+]([O-])c1ccc(O)c(/C=N/NC(=S)N2CCCCC2)c1	6.14 µM (inactive)	8.26 µM (inactive)	
N#CCc1c(-c2ccccc2)n(S(=O)(=O)c2ccccc2)c2ccccc12			GI50 (DMS-114): 64.9 µM (inactive); GI50 (DMS-273): > 100 µM (inactive); GI50 (KM-20L2): > 100 µM (inactive); GI50 (LXFL 529): > 100 µM (inactive); GI50 (M19-MEL): > 100 µM (inactive)
O=S(=O)(O)c1ccccc1/N=N\c1ccc(/N=N/c2c(O)ccc3ccccc23)c(S(=O)(=O)O)c1	> 100 µM (inactive)		
CC(C)=CCC[C@@H](C)C1=C(O)C(=O)C(C)=C(N)C1=O	42.2 µM (inactive)	24.6 µM (inactive)	
NNC(=S)N/N=C/C(Cl)=C(\Cl)C(=O)O			GI50 (DMS-114): > 100 µM (inactive); GI50 (DMS-273): > 100 µM (inactive); GI50 (KM-20L2): > 100 µM (inactive); GI50 (LXFL 529): > 100 µM (inactive); GI50 (M19-MEL): > 100 µM (inactive)
CN(C)c1ccc(/C=C2\C[C@H]3[C@@H]4CC=C5C[C@@H](O)CC[C@]5(C)[C@H]4CC[C@]3(C)C2=O)cc1	53.5 µM (inactive)	32.4 µM (inactive)	
CC(=O)NNC(=S)N/C=C1/C(=O)C=C(C)OC1=O	> 100 µM (inactive)	> 100 µM (inactive)	
CC1CCC2CC1NC(=O)CCOCCC(=O)NC2(C)C (stereo not drawn)	> 100 µM (inactive)	> 100 µM (inactive)	
C/C(CC(=O)Nc1ccc(C)cc1)=N\NC(N)=S			GI50 (DMS-114): > 100 µM (inactive); GI50 (KM-20L2): > 100 µM (inactive); GI50 (LXFL 529): 72.3 µM (inactive); GI50 (M19-MEL): > 100 µM (inactive)
CCOC(=O)c1cc2cc(CSc3ccccc3)ccc2oc1=O	> 100 µM (inactive)	> 100 µM (inactive)	
CCOc1ccc(C2c3[nH]c4ccccc4c3CCN2C(=O)c2cccs2)cc1 (stereo not drawn)	61.9 µM (inactive)	6.55 µM (inactive)	
COc1ccc(N2C(=O)C3c4[nH]c5ccc(C)cc5c4C4CCC(C)CC4C3C2=O)cc1 (stereo not drawn)	> 100 µM (inactive)	> 100 µM (inactive)	
CC(=O)OCC1OC(n2c3c(cc(C#N)c2=S)CCC3)C(OC(C)=O)C(OC(C)=O)C1OC(C)=O (stereo not drawn)	> 100 µM (inactive)	> 100 µM (inactive)	
Cc1ccc([N+](=O)[O-])cc1NC1=NCCO1		> 100 µM (inactive)	

Structure (SMILES)	GI50 (BT-549)	GI50 (MDA-N)	also measured
CC(=O)N(CCc1ccccc1)C(C)(C#N)c1ccccc1 (stereo not drawn)	> 100 µM (inactive)	> 100 µM (inactive)	
CC(=O)OCCOCn1c2ccccc2c2c3c(c4c5ccccc5n(COCCOC(C)=O)c4c21)C(=O)N(Cc1ccccc1)C3=O			GI50 (DMS-273): > 100 µM (inactive); GI50 (KM-20L2): > 100 µM (inactive); GI50 (LXFL 529): > 100 µM (inactive); GI50 (M19-MEL): > 100 µM (inactive)
Cc1sccc1C(=S)Nc1ccc(Cl)c(/C=N/OC(C)(C)C)c1	17.7 µM (inactive)	13.3 µM (inactive)	
C=CCC1=CC2(OC)C(=O)C(OC)(OC)C1C1C(OC)(OC)C(=O)C(OC)=CC12CC=C (stereo not drawn)	49.9 µM (inactive)	> 100 µM (inactive)	
CC1=NN(c2ccc(S(=O)(=O)O)cc2)C(=O)/C1=C/c1ccc(Cl)cc1.c1ccncc1	> 100 µM (inactive)	> 100 µM (inactive)	
COC1OC(CBr)C(OC(=O)c2ccccc2)C(OS(=O)(=O)c2ccc(C)cc2)C1Br (stereo not drawn)			GI50 (DMS-273): > 100 µM (inactive); GI50 (KM-20L2): > 100 µM (inactive); GI50 (LXFL 529): > 100 µM (inactive); GI50 (M19-MEL): > 100 µM (inactive)
CC(=O)O[C@@H]1[C@H](OC2CCCCC2(c2ccccc2)c2ccccc2)O[N+]([O-])=CC12CCCCC2 (stereo partly drawn)		20.2 µM (inactive)	
COc1ccc2/c(=C/c3ccc(N(C)C)cc3)c3cc(-c4ccccc4)[n+](C)n3c2c1	0.0957 µM (active)	0.0889 µM (active)	
Cc1ccc2nc(-c3ccccc3)c(N=O)n2c1	37.1 µM (inactive)		
CC(=O)Oc1cc(-c2oc3cc(OC(C)=O)c(C4OC(CO)C(O)C(O)C4O)c(OC(C)=O)c3c(=O)c2O)c(OC(C)=O)cc1O (stereo not drawn)	> 100 µM (inactive)	> 100 µM (inactive)	
COC(=O)/C=C\S/C(=C(/c1ccccc1)n1ccc(C(=O)OC)n1)c1ccccc1	> 100 µM (inactive)		
CN(Cc1nc2c(N)nc(N)nc2nc1N)c1ccc(C(=O)NC(CCC(=O)O)C(=O)O)cc1 (stereo not drawn)	> 100 µM (inactive)	0.0442 µM (active)	
CC(=O)OCC(OC(C)=O)C(OC(C)=O)C(OC(C)=O)C(/C=N\Nc1nc2ccccc2c(=O)[nH]1)OC(C)=O (stereo not drawn)	> 100 µM (inactive)	> 100 µM (inactive)	
C=CCOC(=O)Cn1cnc2c(N)ncnc21		> 100 µM (inactive)	
COc1cccc(C[C@H]2COC(=O)[C@]2(O)Cc2cccc(OC)c2)c1	> 100 µM (inactive)	> 100 µM (inactive)	
CCOC(=O)C1=C(C)NC(c2ccccc2)=C(C(=O)OCc2ccccc2)C1C#Cc1ccccc1 (stereo not drawn)	> 100 µM (inactive)	0.274 µM (active)	
O=C(NCc1cccs1)OC1CC2CCC1C2 (stereo not drawn)	> 100 µM (inactive)	> 100 µM (inactive)	
O=C1c2c(c3c4ccccc4n4c3c3c2c2ccccc2n3C/C=C\C4)C(=O)N1Cc1ccccc1			GI50 (HOP-18): > 100 µM (inactive); GI50 (KM-20L2): > 100 µM (inactive); GI50 (LXFL 529): > 100 µM (inactive); GI50 (M19-MEL): > 100 µM (inactive)
C[C@H](CCC(=O)NCC(=O)O)[C@H]1CC[C@H]2[C@@H]3[C@H](O)C[C@@H]4C[C@H](O)CC[C@]4(C)[C@H]3CC[C@]12C	> 100 µM (inactive)	> 100 µM (inactive)	
NC1CSc2ccccc2NC1=O (stereo not drawn)	> 100 µM (inactive)	> 100 µM (inactive)	
CC12CCC(=O)[C@@]1(C)CCCC2=O (stereo partly drawn)	> 100 µM (inactive)	> 100 µM (inactive)	
COC12c3ccccc3-c3ccccc3C1[C@H]1C(=O)OC(=O)[C@H]12 (stereo partly drawn)		> 10 µM (inactive)	
O=[N+]([O-])c1nccn1CCCNc1c2ccccc2[n+]([O-])c2ccccc12	> 100 µM (inactive)	> 100 µM (inactive)	
CC(=O)OC1CC2CC(=O)CC1N2C (stereo not drawn)		> 100 µM (inactive)	
Nc1nc(O)c2nc(N)n(Cc3ccccc3)c2n1			GI50 (DMS-114): > 100 µM (inactive); GI50 (DMS-273): > 100 µM (inactive); GI50 (KM-20L2): > 100 µM (inactive); GI50 (LXFL 529): > 100 µM (inactive); GI50 (M19-MEL): > 100 µM (inactive)
CCOC(=O)C1=C(C)NC(=S)NC1c1cccc(O)c1 (stereo not drawn) [MONASTROL]	56.6 µM (inactive)	18.2 µM (inactive)	

— ChEMBL document CHEMBL1201862, “PubChem BioAssay data set” (2004)
